From patent publication US20240192196A1, “NOVEL C[…]-CoV-2 SAFE REPLICON SYSTEM AND USE THEREOF” (SUN YAT-SEN UNIVERSITY, priority 2020, published 2024)

Tested on: novel coronavirus SARS-COV-2 safe replicon system
Experiment: microbe, parasite or virus in culture
Assay type: cell-based
Conditions: Severe acute respiratory syndrome coronavirus 2, HEK-293T, read-out: IC50 (semi-inhibitory concentration), inhibition of cellular luciferase activity

Row | Compound | IC50 [µM]
1 | Cc1cccc(C)c1OCC(=O)N[C@@H](Cc1ccccc1)[C@@H](O)C[C@H](Cc1ccccc1)NC(=O)[C@H](C(C)C)N1CCCNC1=O [Lopinavir] | 6.79 ± 1.09
2 | CCC(CC)COC(=O)[C@H](C)N[P@](=O)(OC[C@H]1O[C@@](C#N)(c2ccc3c(N)ncnn23)[C@H](O)[C@@H]1O)Oc1ccccc1 [Remdesivir] | 12.4 ± 1.08
